Assay results: patent US20060177517A1, “Antiinflammtory agent and antiinflammatory medical material” (priority 2003, published 2006)

How the values were obtained:
[1] = system: Streptococcus mutans JC2 strain; assay: Suppression of intraoral bacteria growth, absorbance at 595 nm; type: cell-based; settings: 24 hours after treatment
Protocol: A test of suppression of bacterial growth with the polyphosphoric acid obtained according to the above production example was conducted using intraoral bacteria, Streptococcus mutans (S. mutans) and Porphylomonas gingivalis (P gingivalis). The S. mutans JC2 strain was anaerobically cultured at 37° C. using Heart infusion media. For the treated groups, polyphosphoric acid was added to the culture solutions at different concentrations (0%, 0.06%, and 0.5%). For comparison groups, phosphate buffers were added at different concentrations (0%, 0.06%, and 0.5%) to culture solutions. The bacteria were cultured for a maximum of 2 days. […] In the meantime, the P. gingivalis ATCC33277 strain was anaerobically cultured using brain-heart-infusion media at 37° C. for the same time period as employed above by adding polyphosphoric acid at different concentrations (0%, 0.015%, 0.03%, 0.06%, 0.12%, 0.25%, and 0.5%) to culture solutions. Bacterial growth was observed over time by measuring absorbance at 595 nm.

[2] = system: inflammation at wound site; assay: Suppression of inflammation at wound site, rat dorsal wound model (HE staining); type: in vivo, Wistar rat; settings: 1% solution locally injected 5 days a week
Text: The dorsum of each 6-week-old male Wistar rat was shaved under ether anesthesia, and then a 20-mm incision was made along the long axis of the body with a depth reaching to the fascia. Both ends of the center of the wound were stitched to the fascia using a piece of string so as to produce a 5-mm-wide spindle-shaped wound model (FIG. 4). A 1% polyphosphoric acid solution was locally injected 5 days a week into each wound of the rats in the treated group. A 1% phosphate buffer was locally injected 5 days a week into each wound of the rats in the comparison group. The rats were euthanized on days 3 and 7. Tissue located in the area extending from 5 mm to the left of and 5 mm to the right of the wound center was obtained by excising skin on the fascia as shown in FIG. 4. The tissues were subjected to HE staining and then histopathological observance was carried out.

[3] = system: P. gingivalis ATCC33277 strain; assay: Suppression of intraoral bacteria growth, absorbance at 595 nm; type: cell-based, Porphylomonas gingivalis; settings: polyphosphoric acid concentration of 0.01%, 48 hours after treatment
Protocol: A test of suppression of bacterial growth with the polyphosphoric acid obtained according to the above production example was conducted using intraoral bacteria, Streptococcus mutans (S. mutans) and Porphylomonas gingivalis (P gingivalis). The S. mutans JC2 strain was anaerobically cultured at 37° C. using Heart infusion media. For the treated groups, polyphosphoric acid was added to the culture solutions at different concentrations (0%, 0.06%, and 0.5%). For comparison groups, phosphate buffers were added at different concentrations (0%, 0.06%, and 0.5%) to culture solutions. […] Bacterial growth was observed over time by measuring absorbance at 595 nm.

[4] = system: periodontal tissue inflammation; assay: Suppression of periodontal tissue inflammation in rat artificial periodontal pockets (HE staining); type: in vivo, Wister rats; settings: approx. 0.1 ml of 1% solution injected into gingival crevice every day for 10 days
Protocol: Male Wister rats (8-week-old; 10 rats in total) were anesthetized, and then the periosteum of the alveolar part of maxillary first molar tooth was stripped. Portions of approximately 2 mm were eliminated from the buccal alveolar apexes of the maxillary first molar tooth and of the maxillary second molar tooth, using a ½ round bar, thereby forming artificial periodontal pockets (gingival crevices). In the case of the treated group (5 rats), approximately 0.1 ml of 1% polyphosphoric acid solution was injected into each gingival crevice using a syringe. Furthermore, in the case of the comparison group (5 rats), only a 1% phosphate buffer was injected. This injection procedure was carried out every day for 10 days from the day following the operation for the preparation of gingival crevices. Rats that had been treated for a certain time period were euthanized under inhalation anesthesia (ether). The maxilla bones were amputated, and then the tissues were fixed for 1 day by immersion using 10% neutral buffered formalin (pH 7.4). Subsequently, the resultants were subjected to acid demineralization at room temperature for approximately 2 days. After completion of demineralization, the samples were trimmed by excision at the second molar tooth, and then paraffin-embedded with their cut surfaces positioned downward. […]

human neutrophils = assay: IL-1β production by human neutrophils treated with GMDP and/or polyphosphoric acid (ELISA); type: cell-based
Protocol: To confirm the effect of suppressing inflammatory cytokine production with the polyphosphoric acid obtained according to the above production example, an experiment was conducted to observe IL-1β production using human neutrophils. Neutrophils were separated from 25 ml of human blood and then suspended in a Dulbecco's Modified Eagle's Medium. […] Treatment was carried out for maximum of 5 hours at 37° C. […] The IL-1β production amount at each time point was measured using an ELISA Kit.

## polyphosphoric acid
[1]; polyphosphoric acid concentration of 0.06%
  bacterial growth of S. mutans: significantly suppressed bacterial growth
[2]; day 3 after operation
  extension of the epithelia toward the centers of the wounds: significant extension
  infiltration by inflammatory cells at the wound: infiltration by inflammatory cells decreased
[2]; day 7 after operation
  epithelialization of the wound surfaces: almost completely epithelialized
  extension of the epithelia at the cut ends of the wounds, compared with the comparison group: promoted
  inflammation at the centers of the wounds: inflammation remained slight and partial on the upper parts
[3]
  bacterial growth of P. gingivalis: significantly suppressed bacterial growth
[4]
  inflammatory cells in the peripheries of the treated sites: Almost no inflammatory cells were observed
Human neutrophils; GMDP plus polyphosphoric acids (0.2, 1, 5 mM), 5 hours after treatment
  IL-1β production amount: decreased depending on the concentrations of the polyphosphoric acids
Human neutrophils; GMDP plus polyphosphoric acids (0.2, 1, 5 mM), until 3 hours after treatment, versus GMDP alone
  IL-1β production amount: suppressed to a level similar to that of the comparison group
Human neutrophils; polyphosphoric acids alone (0.2, 1, 5 mM), no GMDP
  IL-1β production amount: almost the same at any polyphosphoric acid concentration as that in the case of the comparison group

## CC(=O)NC1C(OC2C(CO)OC(O)C(NC(C)=O)C2OC(C)C(=O)NC(C)C(=O)NC(CCC(=O)O)C(N)=O)OC(CO)C(O)C1O [GMDP, N-Acetyl-D-Glucosaminyl-β(1-4)-N-acetylmuramyl-L-alanyl-D-isoglutamine, reference compound]
Human neutrophils; 30 μg GMDP alone, up to 5 hours
  IL-1β production amount: increased with time

## O=P(O)(O)O [phosphoric acid, reference compound]
[1]; phosphoric acid concentration of 0.5%
  bacterial growth of S. mutans: no large changes
